Assay results from paper PMC9310824 (Drug Delivery, 2022).

Assays:
[1] = parameters: method as in Yao et al., 2014; conditions: PBS, within 24 h, ref Yao et al., 2014; cited from earlier work
[2] = test system: rat osteoporosis model (OVX); test: Anti-osteoporotic effect in OVX rats: serum biochemical analysis (ELISA); assay type: in vivo
Procedure: (§1) Bilateral ovariectomy (OVX) was performed to establish the rat osteoporosis model according to earlier work (Shakir et al., [2015]). Next, 24 rats were randomly divided into four groups (n = 6): sham operation group (Sham), OVX model group (OVX), free AS group (AS) and AS-AL-mPEG-PLGA group. Rats were anesthetized by intraperitoneal injection of pentobarbital sodium (1%, 8 mL/kg). Later, the rats were placed on a sterile table and fixed prone, while the surgical site on the back was shaved and sterilized with iodophor. Double incisions were taken under the costal back to separate the muscular layer and retroperitoneum into the abdominal cavity. The ovaries were found in the adipose tissue below the kidneys and were removed with bent tweezers and ligated before complete excision of the bilateral ovaries. After confirming that there was no active bleeding, the muscle layer and skin were interlocked, whilst the wound was disinfected. In the Sham group, only a small amount of adipose tissue around the ovaries was removed without damage to both ovaries. The operation was done gently while attention was paid to the sterility principle. After the operation, the rats were kept warm, while drug administration began 4 weeks afterwards at once a day for 12 weeks. Rats in the groups Sham and OVX were given 2 mL of normal saline via the oral route. Rats in the AS and AS-AL-mPEG-PLGA groups orally received 2 mL of free AS (dispersed in CMC-Na solution, 150 mg/kg) and AS-AL-mPEG-PLGA solution (150 mg/kg) every day, respectively.
All the rats were sacrificed and blood samples were collected. The serum levels of TRACP-5b, BGP, IL-6 and CTX-1 were determined by enzyme-linked immunosorbent assay (ELISA) to evaluate bone absorption and bone formation. The operation steps were strictly in accordance with the instructions of the kits. Finally, the absorbances of the samples were measured at 450 nm with the microplate reader, so as to calculate the concentration of each biochemical index in the serum.

[3] = Drug release study in vitro by dialysis; assay type: physicochemical; conditions: within 48 h, 37 °C
Procedure: The release of AS in vitro was determined by dialysis (Algul et al., [2018]). AS free drug dispersion solution (5 mg/mL, 1 mL) and AS-AL-mPEG-PLGA containing the same volume and concentration of AS were added into dialysis bags (MV 3500 D, 25 mm × 5 m) accordingly. The dialysis bags were placed in a conical flask after their two sections have been fastened together. Subsequently, 100 mL releasing media (pH 1.2 HCl solution, double distilled water and pH 7.4 PBS solution) were added consequently, before the conical flask was placed in a thermostatic water bath oscillator (37 ± 0.5 °C, 100 rpm) for in vitro release experiment. Samples were taken from the conical flask after 0.083, 0.25, 0.5, 0.75, 1, 1.5, 2, 3, 4, 6, 8, 10, 12, 24, 36, 48, 60, 72, 84 and 96 h of oscillation, respectively, while the same stable release medium with the same volume was added accordingly to maintain its dynamic balance. The samples were centrifugated at 10,000 rpm for 10 min before injection into HPLC for analysis according to the chromatographic conditions under the section of “HPLC analysis of AS.” Finally, the peak areas were recorded, and the concentrations of AS were substituted into the standard curve to calculate the cumulative drug release rate.

[4] = test system: rat osteoporosis model (OVX); test: Anti-osteoporotic effect in OVX rats: micro-CT analysis of femur; assay type: in vivo
Procedure: as §1
In order to evaluate the bone microstructure, the right femur was analyzed with high-resolution micro-CT using the micro-CT imaging system (Siemens, Inveon) according to the method described in the literature (Zhang et al., [2012]). The femur was fixed in the centrifuge tube by the long axis, while the surrounding was filled with gauze. Quantitative parameters of bone microstructure including percent bone volume (BV/TV), trabecular thickness (Tb.Th), trabecular number (Tb.N), trabecular separation (Tb.Sp), structural model index (SMI) and bone mineral density (BMD) were measured. All the digital data, 2 D and 3 D images were provided by the built-in software of micro-CT (Siemens, Inveon).

[5] = Detection of AS content in rats' bones; assay type: in vivo; conditions: femur homogenate (1 g/mL saline) after the pharmacokinetic experiment, oral 150 mg/kg
Procedure: After the pharmacokinetic experiment, the rats were sacrificed and the femurs were homogenized with normal saline at a ratio of 1 g/mL. We then centrifugated the homogenized samples at 10,000 rpm for 10 min, before treatment of the supernatant (200 μL) via the same method as described in the section “Pharmacokinetic study in rats.” Finally, the samples were analyzed via the HPLC method to detect the AS concentration in rats’ bones.

[6] = parameters: method as in Zhang et al., 2007; conditions: after p.o. administration, ref Zhang et al., 2007; cited from earlier work
[7] = test system: rat osteoporosis model (OVX); test: Anti-osteoporotic effect in OVX rats: histological analysis (H&E) of femur; assay type: in vivo; conditions: compared with the OVX group
Procedure: as §1, with “Rats in the AS and AS-AL-mPEG-PLGA groups orally received 2 mL of free AS (dispersed in CMC-Na solution, 150 mg/kg) and AS-AL-mPEG-PLGA solution (150 mg/kg) every day, respectively.” left out

[8] = Pharmacokinetic study in rats; assay type: in vivo, SD rats; conditions: oral
Procedure: Twelve SD rats (male, 200 ± 20 g) were maintained in the laboratory environment for 3 days before experiments. The rats were randomly divided into the free AS group and AS-AL-mPEG-PLGA group with 6 rats in each group. The rats have fasted from food for 12 h with free access to water before the experiment. Rats in the two groups were orally given free AS (dispersed CMC-Na solution) and AS-AL-mPEG-PLGA of equivalent AS dose (150 mg/kg). At each point of 0.25, 0.5, 0.75, 1, 1.5, 2, 2.5, 3, 4, 6, 8, 10, 12 and 24 h after administration, blood samples (0.4 mL) were collected from the orbit of rats with capillaries. The blood samples were placed in a 1.5 mL EP tube filled with heparin sodium and centrifuged at 3700 rpm for 10 min. Aliquot (200 μL) of supernatant was collected into another clean 1.5 mL EP tube. Next, 600 μL of methanol was added into the tube before vortexing for 1 min. The mixture was centrifuged at 10,000 rpm for 10 min and the methanol layer was […] prior to drying with N2 at 37 °C. The residue was dissolved with 100 μL methanol coupled with vortexing for 1 min, and then 10 min of centrifugation at 10,000 rpm. Then, the supernatant was taken and analyzed with HPLC. The peak areas of AS and internal standard were recorded and substituted into the standard curve in vivo to subsequently calculate the concentration of AS.

[9] = oral 150 mg/kg daily, 12 weeks, P < .01

In the case of CN(C)c1ccc(O)c2c1C[C@H]1C[C@H]3[C@H](N(C)C)C(O)=C(C(N)=O)C(=O)[C@@]3(O)C(O)=C1C2=O [free minocycline, minocycline], the minocycline released [1] is listed as ~100%.
In the case of Astragaloside, the “expression level of IL-6 compared with OVX group” value [2, 9] is reported as “decreased significantly”, the “serum level of BGP compared with OVX group” value [2, 9] is reported as “significantly decreased” and the “serum level of CTX-1 compared with OVX group” value [2, 9] is reported as “significantly decreased”. The “serum level of TRACP-5b compared with OVX group” value [2, 9] was “significantly decreased”, the “serum level of IL-6” value ([2]; oral 150 mg/kg once a day for 12 weeks) was 53.88 ± 4.23 pg/mL and the cumulative release rate ([3]; double distilled water) was 93.85%. The cumulative release rate ([3]; pH 1.2 HCl solution) was 96.87%, the cumulative release rate ([3]; pH 7.4 PBS solution) was 95.95% and the “bone microstructure in 2D and 3D micro-CT images” value ([4]; compared with OVX group) was “significantly reduce osteoporosis and increase dense bone mass”. For the same molecule, the “BMD (bone mineral density)” value ([4]; oral 150 mg/kg daily, 12 weeks) was “notably increased”, the “BV/TV (percent bone volume)” value ([4]; oral 150 mg/kg daily, 12 weeks) was “notably increased” and the “SMI (structural model index)” value ([4]; oral 150 mg/kg daily, 12 weeks) was “substantially reduced”. For the same molecule, the “Tb.N (trabecular number)” value ([4]; oral 150 mg/kg daily, 12 weeks) was “notably increased”, the “Tb.Sp (trabecular separation)” value ([4]; oral 150 mg/kg daily, 12 weeks) was “substantially reduced” and the “Tb.Th (trabecular thickness)” value ([4]; oral 150 mg/kg daily, 12 weeks) was “notably increased”. For the same molecule, the “concentration of AS in bone” value [5] was 1950 ± 170 ng/mL, the absolute bioavailability [6] was 7.4% and the “adipose tissue in femur, H&E staining” value [7] was “relatively less adipose tissue”. The “mean plasma concentration at 1440 min” value ([8]; 150 mg/kg) was 260 ± 50 ng/mL, the AUC0-t ([8]; AS dose 150 mg/kg) was 1520.45 ± 45.19 µg·min/mL and the Cmax ([8]; AS dose 150 mg/kg) was 5250 ± 500 ng/mL. For the same molecule, the MRT ([8]; AS dose 150 mg/kg) was 5.55 ± 0.143 h, the T1/2 ([8]; AS dose 150 mg/kg) was 6.5952 ± 0.4407 h and the Tmax ([8]; AS dose 150 mg/kg) was 2 ± 0 h.
